We go through 54 compounds from ChEMBL document CHEMBL1201862, “PubChem BioAssay data set” (2004).

The structures appear in SMILES notation. Calls of active or inactive are those of the source. A value given as a limit tells only on which side of the number the result lay.

For one assay, the target named is Cytochrome P450 2C9 (Homo sapiens, UniProt P11712).
In a further assay the target is Cytochrome P450 2C19 (Homo sapiens, UniProt P33261). Nature of the assay: Cytochrome panel assay with activity outcomes. Panel member name: p450-cyp2c19 Compounds with AC50 equal or less than 10 uM are considered active. It is filed as functional. As to conditions: read-out: AC50.
Chain of Cytochrome P450 2C19 (P33261 whole entry): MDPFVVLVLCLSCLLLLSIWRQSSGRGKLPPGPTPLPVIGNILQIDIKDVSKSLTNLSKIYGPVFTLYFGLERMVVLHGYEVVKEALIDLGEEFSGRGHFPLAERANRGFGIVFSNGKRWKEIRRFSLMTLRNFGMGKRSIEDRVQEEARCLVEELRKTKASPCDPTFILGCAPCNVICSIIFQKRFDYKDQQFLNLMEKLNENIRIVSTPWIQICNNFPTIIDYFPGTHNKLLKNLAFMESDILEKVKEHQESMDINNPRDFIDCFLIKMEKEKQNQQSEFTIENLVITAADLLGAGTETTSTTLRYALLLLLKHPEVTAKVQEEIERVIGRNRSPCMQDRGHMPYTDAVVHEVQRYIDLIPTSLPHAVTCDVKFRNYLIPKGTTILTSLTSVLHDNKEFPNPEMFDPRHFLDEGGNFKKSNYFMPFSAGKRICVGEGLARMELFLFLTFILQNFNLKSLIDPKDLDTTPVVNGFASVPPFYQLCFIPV
The target in a further assay is T1, Cytochrome P450 1A2 (Homo sapiens, UniProt P05177).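 Note: PubChem cytochrome P450 panel assay, CYP1A2 panel member.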
T1 sequence (P05177 whole entry): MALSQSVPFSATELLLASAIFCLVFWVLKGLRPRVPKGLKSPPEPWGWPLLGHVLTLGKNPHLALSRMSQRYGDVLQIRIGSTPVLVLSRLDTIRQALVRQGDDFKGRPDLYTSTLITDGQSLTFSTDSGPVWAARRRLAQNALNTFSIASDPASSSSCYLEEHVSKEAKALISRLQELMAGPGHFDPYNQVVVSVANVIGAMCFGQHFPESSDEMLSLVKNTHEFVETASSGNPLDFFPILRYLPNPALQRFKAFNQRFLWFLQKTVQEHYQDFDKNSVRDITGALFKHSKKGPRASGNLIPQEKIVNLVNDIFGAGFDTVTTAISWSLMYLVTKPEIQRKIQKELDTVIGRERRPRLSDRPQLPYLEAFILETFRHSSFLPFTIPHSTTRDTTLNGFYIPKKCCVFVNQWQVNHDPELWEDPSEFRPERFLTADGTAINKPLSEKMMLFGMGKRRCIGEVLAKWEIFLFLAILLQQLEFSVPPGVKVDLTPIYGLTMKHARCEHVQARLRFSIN

The target in a further assay is Cytochrome P450 2D6 (Homo sapiens, UniProt P10635).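 Note: CYP2D6 member of a cytochrome P450 panel assay.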
Chain of Cytochrome P450 2D6 (P10635 whole entry): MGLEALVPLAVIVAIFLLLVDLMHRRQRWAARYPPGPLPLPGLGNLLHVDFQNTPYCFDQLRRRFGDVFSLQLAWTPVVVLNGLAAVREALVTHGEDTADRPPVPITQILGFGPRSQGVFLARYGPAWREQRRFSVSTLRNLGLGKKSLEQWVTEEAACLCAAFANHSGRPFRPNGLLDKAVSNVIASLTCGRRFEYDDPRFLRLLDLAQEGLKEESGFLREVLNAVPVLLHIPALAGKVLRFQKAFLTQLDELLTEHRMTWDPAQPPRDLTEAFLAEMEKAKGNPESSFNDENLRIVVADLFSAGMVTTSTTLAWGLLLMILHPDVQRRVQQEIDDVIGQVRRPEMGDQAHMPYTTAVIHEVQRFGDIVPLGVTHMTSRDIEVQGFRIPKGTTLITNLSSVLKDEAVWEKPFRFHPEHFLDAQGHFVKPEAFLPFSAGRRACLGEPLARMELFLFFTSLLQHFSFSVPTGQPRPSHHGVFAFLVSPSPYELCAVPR
Assay [1] deals with T2, Heat shock factor protein 1 (Mus musculus, UniProt P38532).
T2 sequence (P38532 whole entry): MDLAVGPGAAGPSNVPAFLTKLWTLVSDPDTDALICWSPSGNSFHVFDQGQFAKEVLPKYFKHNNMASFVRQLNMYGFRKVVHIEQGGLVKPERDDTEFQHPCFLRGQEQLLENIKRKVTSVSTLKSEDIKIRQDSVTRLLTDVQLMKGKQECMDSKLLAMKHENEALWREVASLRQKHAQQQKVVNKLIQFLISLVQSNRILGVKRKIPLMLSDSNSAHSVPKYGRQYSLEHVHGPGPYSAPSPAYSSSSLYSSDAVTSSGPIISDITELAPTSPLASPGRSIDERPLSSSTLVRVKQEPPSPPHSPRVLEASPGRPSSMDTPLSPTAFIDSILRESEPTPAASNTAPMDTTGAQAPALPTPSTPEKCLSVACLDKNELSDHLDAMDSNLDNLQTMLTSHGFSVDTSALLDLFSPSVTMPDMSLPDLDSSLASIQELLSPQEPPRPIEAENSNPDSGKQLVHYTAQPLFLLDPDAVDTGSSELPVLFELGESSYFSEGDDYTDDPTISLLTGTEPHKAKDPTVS
Nature of the assay: inhibition of MG132-induced HSE-luciferase signal, confirmation, cell-based, NIH3T3, luminescence, dose retest (AID 2382).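 Note: NIH3T3 fibroblasts with HSF1-driven luciferase reporter stressed by proteasome inhibitor MG132; luminescence from HSF1-driven luciferase expression after 8 hours of MG132 stress.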 It is filed as functional.

Assay [2] has as its target T2, Heat shock factor protein 1. Nature of the assay: HSF1 potentiators in luciferase reporter cells, confirmation, cell-based, NIH3T3, luminescence, dose retest (AID 435004).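 Note: stress induced by proteasome inhibitor MG132 added 30 min after compound; luciferase reporter driven by HSF1 response element in NIH3T3 cells; actives raise luminescence as potentiators of the MG132 stress response.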 It is filed as functional. In general terms: In a reporter assay the amount or activity of a reporter protein is the signal.
The nature of assay [3]: Luminescence Cell-Based Dose Retest to Confirm Inhibitors of Cancer Stem Cells. [Related pubchem assays (depositor defined):AID2717, AID2721]. It is filed as functional. The note with it: Homo sapiens.

Chain of Cytochrome P450 2C9 (P11712 whole entry): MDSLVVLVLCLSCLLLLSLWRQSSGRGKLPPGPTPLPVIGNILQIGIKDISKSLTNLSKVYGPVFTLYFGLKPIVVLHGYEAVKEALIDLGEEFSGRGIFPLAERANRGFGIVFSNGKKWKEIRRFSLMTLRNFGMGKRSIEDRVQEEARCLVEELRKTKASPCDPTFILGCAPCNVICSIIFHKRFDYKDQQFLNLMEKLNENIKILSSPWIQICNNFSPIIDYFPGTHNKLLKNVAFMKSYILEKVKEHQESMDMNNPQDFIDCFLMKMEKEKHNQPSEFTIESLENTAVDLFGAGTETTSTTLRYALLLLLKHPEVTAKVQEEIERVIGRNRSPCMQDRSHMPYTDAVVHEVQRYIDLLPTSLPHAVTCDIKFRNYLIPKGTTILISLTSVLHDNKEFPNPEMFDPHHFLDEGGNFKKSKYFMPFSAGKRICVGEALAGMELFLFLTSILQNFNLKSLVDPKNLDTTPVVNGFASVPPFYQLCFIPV

Turning to `O=c1[nH]ncc2c3ccccc3n(Cc3ccccc3)c12`, the values for the AC50 on Cytochrome P450 2C9 and on Cytochrome P450 2C19 were 2 µM (inconclusive) and 2.51 µM (inconclusive), respectively. Regarding `CCOC(=O)c1ccccc1NC(=O)CSc1cccc[n+]1[O-]`, the AC50 on Cytochrome P450 1A2 is 25.1 µM (inconclusive); at Cytochrome P450 2C19, 22.4 µM (inconclusive). `COc1ccccc1-c1cncnc1-n1ccnc1`: the AC50 at Cytochrome P450 2C19 and at Cytochrome P450 2D6 was 25.1 µM (inconclusive) each time.

Regarding `CSc1cccc(NS(=O)(=O)c2cc(Br)cnc2N)c1`, in assay [1], the EC50 was > 195 µM (not active). Consider `CSc1sc(C(=O)OC(C)C)c2c1C(=O)CC(C)(C)C2`, for which the EC50 in assay [2] was > 260 µM (inactive). Consider `CC1(CCC#N)N=C(SCCC#N)N(c2ccccc2)C1=O` (centres undefined), for which the AC50 on Cytochrome P450 2C19 is 25.1 µM (inconclusive). With `CC(=O)N1c2ccc(C)cc2C(c2ccccc2)CC1C` (centres undefined), the EC50 in assay [2] is > 260 µM (inactive).

Turning to `CC(C)CN1CCC2(CC1)CCN(C(=O)c1cccn1C)CC2`, the half-maximal activity concentration (AC50) at Cytochrome P450 2D6 was 12.6 µM (inconclusive). As to `CS(=O)(=O)Nc1cccc(-c2nc(NCc3cccnc3)c3ccccc3n2)c1`, at Cytochrome P450 2C9, the AC50 is 1 µM (inconclusive). `O=C1c2ccccc2C(=O)c2c1ccc(C(=O)O)c2-c1ccc2ccccc2c1`: the AC50 is 1.26 µM (inconclusive) on Cytochrome P450 1A2 and 7.94 µM (inconclusive) at Cytochrome P450 2D6. Turning to `N#Cc1ccc(Cl)cc1NC(=O)CNCc1cccs1`, the EC50 in assay [2] is > 260 µM (inactive). Turning to `CCCc1ccc(NC(=O)C2CCCN(c3cnccn3)C2)cc1` (centres undefined), in assay [2], the EC50 is > 260 µM (inactive). As to `Cc1ccc(C(=O)NCCCN2CCOCC2)cc1N1CCCC1=O`, the AC50 at Cytochrome P450 2C9 is 1.26 µM (inconclusive). `Cc1ccc(C2=Nc3ccccc3NC(C)(c3ccc(C)o3)C2)o1` (centres undefined): in assay [2], the EC50 is > 260 µM (inactive).

Regarding `Cc1ccc(-c2nc(-c3cccnc3)sc2CC(=O)Nc2ccc3nc(C)sc3c2)cc1`, in assay [1], the EC50 is > 195 µM (not active).

With `Cc1ccccc1C(=O)NC[C@@H]1CCCN2CCCC[C@H]12`, in assay [1], the EC50 was 18.6 µM (active). Still for that read-out and setting: the figure for `C=CCNc1cc(C)oc(=O)c1C(=O)CCC` is > 195 µM (not active). For the compound `CCOC(=O)C1=CN(Cc2ccc(OC)cc2)C=C(C(=O)OCC)C1c1cccs1`, in assay [2], the EC50 was > 260 µM (inactive). Still for that read-out and setting: the figure for `CC(C)(C)c1ccc(OCC(=O)NN2Cc3ccccc3C2=N)cc1` is > 260 µM (inactive). For `CCCCCCCCCCCCC/C=C\[C@@H](O)[C@@H](N)CO`, the figures for the AC50 on Cytochrome P450 2C9 and on Cytochrome P450 2C19 were 39.8 µM (inconclusive) and 25.1 µM (inconclusive), respectively. For `COC1CCCN(C(=O)c2ccc(OC3CCN(CCc4ccccc4)CC3)cc2)C1` (centres undefined), in assay [1], the EC50 is > 195 µM (not active). `CC(=O)NN1C(=O)/C(=C\c2ccc(C)cc2)SC1=S`: the AC50 at Cytochrome P450 2C9 is 28.2 µM (inconclusive). For the compound `CN(C)c1ncc2nc(-c3ccc(Cl)cc3)c(=O)n(-c3ccccc3)c2n1`, the AC50 on Cytochrome P450 1A2 was 5.01 µM (inconclusive); at Cytochrome P450 2D6 it was 0.631 µM (inconclusive). For the compound `COc1ccccc1CN1CCCC2(CCN(C(=O)c3ccncc3)CC2)C1`, the AC50 on Cytochrome P450 2C9 and on Cytochrome P450 1A2 was 20 µM (inconclusive) in each case.

Take `CCC(C)c1ccc(OCc2ccc(C(=O)O)o2)cc1` (centres undefined): the EC50 in assay [1] was 18.7 µM (inconclusive). As to `COC(=O)[C@@]1(Cc2ccccc2)[C@H]2c3cc(C(=O)N4CCCC4)n(Cc4cc(F)cc5c4OCOC5)c3C[C@H]2CN1C(=O)c1ccccc1`, the AC50 on Cytochrome P450 2D6 was 10 µM (inconclusive).

In the case of `CCOc1ccc(C)cc1S(=O)(=O)NC1CCCCC1`, in assay [2], the EC50 is > 260 µM (inactive).

Take `Cc1ccc(C)c(NC(=O)CS(=O)(=O)c2cn(C)c3ccccc23)c1`: the EC50 in assay [2] is > 260 µM (inactive). As to `CCCCN1C(=O)C(NC(=O)CC(C)C)(C(F)(F)F)C2=C1CC(C)(C)CC2=O` (centres undefined), the figures for the half-maximal activity concentration (AC50) on Cytochrome P450 2C9 and on Cytochrome P450 2C19 were 5.62 µM (inconclusive) and 25.1 µM (inconclusive), respectively.

For the compound `CN(C(=O)CN1C(=O)S/C(=C\c2ccccc2)C1=O)C1CCS(=O)(=O)C1` (centres undefined), the EC50 in assay [1] is listed as > 195 µM (not active). Turning to `O=c1ccc2ccc(Oc3ccc([N+](=O)[O-])cc3[N+](=O)[O-])cc2o1`, the EC50 in assay [2] was 13.5 µM (active). Turning to `Cc1ccc(NC(=S)N=Nc2c(O)n(C)c3ccc(S(=O)(=O)N4CCOCC4)cc23)cc1`, the EC50 in assay [2] was 6.25 µM (active). Turning to `Cc1cc(/C=C2\SC(=S)N(Cc3ccco3)C2=O)c(C)n1-c1ccccc1`, the EC50 in assay [1] was 1.57 µM (active). Also, the AC50 in assay [3] is 2.2 µM (active). Consider `COc1cccc(CN2CC(C(=O)NCc3ccc(C)o3)CCC2=O)c1` (centres undefined), for which the EC50 in assay [2] is > 260 µM (inactive). On to `O=C(CSC(=S)N1CCCCC1)Nc1ncc2c(n1)CCCC2=O`, for which the concentration for a half-maximal effect (EC50) in assay [1] is given as > 195 µM (not active). On to `Cc1ccc(CNC(=O)Cn2c(=O)oc3ccccc32)o1`, for which the AC50 on Cytochrome P450 2D6 was 20 µM (inconclusive).

With `CC12COC3(C(=O)Nc4nccs4)CC1CCC32C` (centres undefined), the AC50 at Cytochrome P450 2C9 is 0.01 µM (inconclusive); at Cytochrome P450 1A2, 12.6 µM (inconclusive).

With `COc1ccc(C(=O)NCCCN2CCOCC2)cc1OC`, the AC50 at Cytochrome P450 2C9 was 14.1 µM (inconclusive); on Cytochrome P450 2D6, 2 µM (inconclusive). Turning to `O=C1c2ccccc2C(Nc2ccc3c(c2)OCCO3)N1c1ccc(Cl)cn1` (centres undefined), in assay [1], the EC50 is given as > 195 µM (not active).

As for `CCOc1cc(NC(=O)c2ccccc2C)c(OCC)cc1N=C(S)NCC1CCCO1` (centres undefined), the half-maximal activity concentration (AC50) on Cytochrome P450 2C19 is 11.2 µM (inconclusive). On to `Cc1cccc(CN2CCC(C(=O)Nc3cccc(-c4cscn4)c3)CC2)n1`, for which the EC50 in assay [2] was > 260 µM (inactive).

Regarding `COc1cccc(C(=O)Nc2ccc3c(C)cc(=O)oc3c2)c1`, the EC50 in assay [2] is > 260 µM (inactive). On the same count and under the same terms, the figure for `CC(=O)NCCn1ccc2ccccc21` is > 260 µM (inactive).

For the compound `CCNc1ncc2nc(-c3cc(F)cc(F)c3)c(=O)n(-c3ccc(OC)cc3)c2n1`, the AC50 at Cytochrome P450 2D6 was 0.158 µM (inconclusive). Take `CC1CCCN(C(=O)c2ccccc2OC2CCN(S(C)(=O)=O)CC2)C1` (centres undefined): in assay [2], the EC50 was > 260 µM (inactive). Consider `O=C(CN(Cc1ccccc1)S(=O)(=O)c1ccc2c(c1)OCCO2)N/N=C/c1ccc(F)cc1`, for which the values for the AC50 on Cytochrome P450 1A2 and at Cytochrome P450 2D6 were 11.2 µM (inconclusive) and 15.8 µM (inconclusive), respectively.

For `COc1cccc(-c2c(C(=O)N/N=C(\C)c3ccc(Cl)s3)nnn2-c2nonc2N)c1`, the EC50 in assay [2] was 51.8 µM (active).

Consider `COc1ccc(OCCn2c(C)c(/C=N/n3cnnc3)c3ccccc32)cc1`, for which, on Cytochrome P450 2D6, the AC50 was 3.98 µM (inconclusive).

As to `C/C(=N/NC(=O)c1cccs1)c1ccc(NC(=O)COc2ccc(Cl)cc2Cl)cc1`, the AC50 at Cytochrome P450 2C9 was 4.47 µM (inconclusive); at Cytochrome P450 1A2, 12.6 µM (inconclusive). For `Cc1ccc(C)c(S(=O)(=O)c2c(N)n(/N=C/c3ccco3)c3nc4ccccc4nc23)c1`, the EC50 in assay [2] was > 260 µM (inactive). On to `COc1ccccc1CNc1ncnc2ccc(-c3ccccc3OC)cc12`, for which the AC50 at Cytochrome P450 2D6 was 12.6 µM (inconclusive). With `Nc1ccccc1SCc1csc(-c2ccc(Cl)cc2)n1`, the AC50 at Cytochrome P450 2C9 was 5.01 µM (inconclusive); at Cytochrome P450 2D6, 3.16 µM (inconclusive). As for `NS(=O)(=O)c1cc2c(cc1Cl)NCNS2(=O)=O` [HYDROCHLOROTHIAZIDE], the concentration giving a half-maximal response (EC50) in assay [1] was > 195 µM (not active). For `CN(C(=O)Cc1ccc(Cl)c(Cl)c1)[C@H](CN1CCCC1)c1ccccc1` [ICI-199,441], the AC50 was 31.6 µM (inconclusive) on Cytochrome P450 1A2 and 0.0126 µM (active) at Cytochrome P450 2D6.

What is called AC50 is the midpoint of the concentration-response curve, whichever way the signal moves. By EC50 is commonly meant the concentration giving half of the maximal effect.
